Reference: US12017995B2, “Crystalline forms and salt forms of a kinase inhibitor” (Exelixis, Inc., priority 2018, dated 2024)
“Also recorded” adds a separate entry of the source. Where two headings read alike, the source gives them in different places.

Legend:
Format in all cases: physicochemical
[1] = pKa and log P determination (Pion Inc./Sirius Analytical Instruments Ltd.)
Description: pKa and log P Determination: pKa and log P determination were performed by Pion Inc./Sirius Analytical Instruments Ltd. in East Sussex, United Kingdom.

[2] = Dynamic vapor sorption (DVS); conditions: for crystalline form of post-DVS sample by XRPD: after sorption/desorption; for water vapor uptake / weight gain by DVS: from 5% to 95% RH
Description: Dynamic Vapor Sorption (DVS)
a. VTI: Automated vapor sorption (VS) data were collected on a VTI SGA-100 Vapor Sorption Analyzer. NaCl and PVP were used as calibration standards. Samples were dried prior to analysis. Sorption and desorption data were collected over a range from 5% to 95% RH at 10% RH increments under a nitrogen purge. The equilibrium criterion used for analysis was less than 0.0100% weight change in 5 minutes with a maximum equilibration time of 3 hours. Data were not corrected for the initial moisture content of the samples.
b. Intrinsic: Automated vapor sorption (VS) data were collected on a Surface Measurement System DVS Intrinsic instrument. Samples were not dried prior to analysis. Sorption and desorption data were collected over a range from 5% to 95% RH at 10% RH increments under a nitrogen purge. The equilibrium criterion used for analysis was less than 0.0100% weight change in 5 minutes with a maximum equilibration time of 3 hours. Data were not corrected for the initial moisture content of the samples.

[3] = Stability testing in open vials, 75% RH chamber at 40° C., analysed by PLM and XRPD; conditions: 15 days / approximately 2 weeks, XRPD
Description: (§1) The physical stability of Hemifumarate Form B was investigated. Compound 1 Hemifumarate Form B was slurried in water at ambient conditions for approximately 24 hours. In a separate experiment, the material was repeatedly washed with acetone.
Stability Testing: Various Compound 1 salts were placed in open vials within a 75% RH chamber (saturated sodium chloride solution). The RH chamber was placed in a 40° C. oven for 15-16 days. Samples were analyzed by PLM and XRPD upon the end of the duration.

[4] = Disproportionation check: water slurry at ambient conditions and repeated acetone wash, XRPD of recovered material
Description: as §1
Solids were then collected by vacuum filtration and analyzed by XRPD.

Row | Compound | pKa [1] | logP ([1]; read-out: cationic log P) | logP ([1]; read-out: neutral log P) | hygroscopicity by DVS (class) ([2]; 5% to 95% RH) | crystalline form of post-DVS sample by XRPD [2] | water vapor uptake / weight gain by DVS [2] | physical stability at 40° C. and 75% RH [3] | disproportionation of the salt in acetone ([4]; repeatedly washed with acetone) | disproportionation of the salt in water ([4]; slurried in water at ambient conditions for approximately 24 hours) | hygroscopicity by DVS ([2]; DVS isotherm) | weight gain/loss through the DVS sorption/desorption experiment ([2]; sorption/desorption 5% to 95% RH, without hysteresis)
1 | CNC(=O)c1cc2c(Oc3ccc(NC(=O)C4(C(=O)Nc5ccc(F)cc5)CC4)cc3)ccnc2cc1OC [Compound 1 Form A, 1-N′-(4-Fluorophenyl)-1-N-[4-[7-methoxy-6-(methylcarbamoyl)quinolin-4-yl]oxyphenyl]cyclopropane-1,1-dicarboxamide] | 5.43 ± 0.4 | 1.79 ± 0.8 | 4.5 ± 0.5 | Limited | no change in crystalline form | ~0.91 wt % | – | – | – | – | –
2 | CNC(=O)c1cc2c(Oc3ccc(NC(=O)C4(C(=O)Nc5ccc(F)cc5)CC4)cc3)ccnc2cc1OC [Compound 1 Hemifumarate Form B] | – | – | – | – | remained unchanged | about 0.2 wt % | physically stable; also recorded: did not change by XRPD | disproportionation was not evident; also recorded: did not cause disproportionation | disproportionation was not evident; also recorded: did not cause disproportionation | not hygroscopic | less than 0.2%
